Measurements as given in patent US10933053B2, “Treating infections with ceftolozane/tazobactam in subjects having impaired renal function” (MERCK SHARP & DOHME CORP., priority 2013, dated 2021).

What was measured:
[1] = clinical; settings: both, human, in vivo; for Vd: Vss
Procedure: This was a Phase 1, multicenter, prospective, open-label study of 750 mg ceftolozane/tazobactam (as CXA-201) administered IV in male and female adult subjects with severe renal impairment (estimated CLCR<30 mL/min) and subjects with end-stage renal disease (ESRD) on hemodialysis (HD). The primary objective of the study was to determine the PK profile of ceftolozane/tazobactam in subjects with severe renal impairment and subjects with ESRD on HD and to determine the effect of HD on the clearance of ceftolozane/tazobactam.
Subjects with severe renal impairment received a single IV 1-hour infusion of 750 mg ceftolozane/tazobactam on Day 1. […] Subjects in this cohort received an IV dose of 750 mg ceftolozane/tazobactam as a 1 hour infusion immediately after their first HD session on Day 1 (post dialysis, approximately 72 hours prior to the next HD session) and a second dose of ceftolozane/tazobactam approximately 2 hours before their second HD session on Day 4 of the study. Infusion of ceftolozane/tazobactam was completed approximately 1 hour before the start of HD.
Subjects in both cohorts had urine (if not anuric) and plasma samples collected for determination of levels of ceftolozane, tazobactam and the M1 metabolite of tazobactam; subjects in the ESRD on HD cohort also had dialysate fluid samples collected for PK assessment. Plasma, urine, and dialysate levels of ceftolozane, tazobactam, and its metabolite M1 collected over a prespecified interval were determined by LC/MS/MS assay.
All subjects underwent hemodialysis for 3 to 4 hours using a high-flux membrane (either 1.4, 1.8, or 1.9 m^2) on Days 1, 4, and 6 as scheduled. Average blood flow rate was 264 to 600 mL/min and average dialysis flow rate was either 600 or 800 mL/min for all subjects with ESRD.
All cohorts received ceftolozane/tazobactam as an intravenous infusion over 1 h. The normal, mild, and moderate renal impairment cohorts received a single dose of ceftolozane/tazobactam 1,000 mg/500 mg; the severe renal impairment cohort received a single dose of ceftolozane/tazobactam 500 mg/250 mg; the ESRD cohort received a dose of ceftolozane/tazobactam 500 mg/250 mg initiated at the end of HD on day 1 and another dose initiated 2 h before HD on day 4. Subjects with ESRD underwent HD for 3 to 4 h using a high-flux membrane as scheduled; average dialysis flow rate was 600 to 800 ml/min. Revaclear hemodialyzers (Gambro, Stockholm, Sweden) were used in 5 subjects (ultrafiltration coefficient 50 to 60 ml/h/mmHg, high flux membrane of 1.4 to 1.8 m^2) and a CT 190G hemodialyzers (Baxter Healthcare, McGaw Park, Ill.) was used in 1 subject (ultrafiltration coefficient 36 ml/h/mmHg, high flux membrane of 1.9 m^2). The average blood flow rate was 400 to 600 ml/min with the exception of one subject with rates between 264 and 400 ml/min.
Plasma concentrations of ceftolozane and tazobactam were measured prior to, during, and following administration of ceftolozane/tazobactam. Blood samples were collected 30 min prior to administration, at the end of administration and at 5, 15, and 30 min and 1, 2, 3, 5, 7, 9, 11, 15, 25, and 35 h after completion of ceftolozane/tazobactam administration in the normal, mild, and moderate renal impairment cohorts. Severe renal impairment and ESRD cohorts off HD had samples taken 30 min prior to administration and at 0.5, 1, 1.5, 2, 3, 6, 9, 12, 24, 36, and 48 h after the start of administration. On the day of and following HD, the subjects with ESRD had samples taken 30 min prior to administration and at 0.5, 1, 1.5, 2, 3, 4, 5, 6, 9, 12, 24, 36, and 44 h after the start of the administration. The entire dialysate was collected at each of the following intervals: 0 to 1, 1 to 2, 2 to 3, and 3 h to the end of dialysis. Urine for PK analysis was obtained in the normal, mild, and moderate cohorts at 0 to 2, 2 to 4, 4 to 8, 8 to 12, 12 to 24, and 24 to 36 h after the start of ceftolozane/tazobactam administration.

[2] = clinical; settings: human, in vivo, t1/2, geometric mean
Procedure: The extent of ceftolozane exposure increases with decreasing renal function. […] In subjects with moderate renal impairment, exposure approximately doubles relative to that in subjects with normal renal function.
For tazobactam, this estimated exposure from a dose of 125 mg in subjects with severe renal impairment not on hemodialysis is similar to that achieved with 500 mg tazobactam in subjects with normal renal function (23.8 μg·h/mL).

SMILES	AUC [1] [µg·h/mL]	AUC48h Ratio (Day 3:1), median (range) [1]	CLss [1]	Change in Concentration [1]	Clast [1]	Clast lower than Cmax [1]	Concentration after HD [1]	Concentration before HD [1]	Half-Life, median (range) [1]	Percent Removed [1]	Percent Removed, median (range) [1]	average extraction ratio during HD [1] [%]	median Cmax higher vs normal renal function, dose normalized [1] [fold]	rebound peak plasma concentration after HD, of the original Cmax [1]	reduction in overall exposure [1]	AUC(0-inf) ([1]; AUC0-∞) [µg·h/mL]	AUC(0-inf) ([1]; AUC0-∞, median (range)) [µg·h/mL]	clearance ([1]; CL, median (range)) [mL/min]	Cmax [1] [ng/mL]	Cmax ([1]; median (range)) [ng/mL]	other results
C[C@]1(Cn2ccnn2)[C@H](C(=O)O)N2C(=O)C[C@H]2S1(=O)=O [Tazobactam, tazobactam]	26.4	0.44 (0.26-0.53)	8.53 (5.53-15.9) L/hr	10.5 (3.6-17.6)	0.46 (0.13-1.14) μg/mL	~32 fold	0.5 (0.1-1.1) μg/mL	10.8 (3.9-18.7) μg/mL	5.0 (1.9-8.5) hr	95.3 (83.8-98.6) %	56 (47-74)	53	2.4	~6%	~56%	29.4	109	40	14900	20200	Tmax [1]: 1.00 (1.00-1.00) hr; Tmax, median (range) [1]: 1.0 (1.0-1.0) hr; median dialysis clearance (CLD) [1]: 4.39 (1.36-6.29) L/hr; removed by dialysis [1]: ~56%; t1/2 during the HD period (median) [1]: 0.91 h; half-life ([1]; Half-Life, median (range)): 4.21 h; Vd [1]: 10.4 L; Vd ([1]; median (range)): 15.2 L; half-life [2]: 1.78 h
Cn1c(N)c(NC(=O)NCCN)c[n+]1CC1=C(C(=O)O)N2C(=O)[C@@H](NC(=O)/C(=N\OC(C)(C)C(=O)O)c3nsc(N)n3)[C@H]2SC1 [Ceftolozane, (6R,7R)-3-[(5-amino-4-{[(2-aminoethyl)carbamoyl]amino}-1-methyl-1H-pyrazol-2-ium-2-yl)methyl]-7-({(2Z)-2-(5-amino-1,2,4-thiadiazol-3-yl)-2-[(1-carboxy-1-methylethoxy)imino]acetyl}amino)-8-oxo-5-thia-1-azabicyclo[4.2.0]oct-2-ene-2-carboxylate]	87	0.34 (0.26-0.48)	5.01 (4.11-10.7) L/hr	32.3 (10.2-44.8)	2.88 (1.23-4.48) μg/mL	approximately 14 fold	2.9 (1.2-4.5) μg/mL	34.4 (13.2-49.3) μg/mL	43.2 h	91.5 (72.3-96.3) %	66 (52-74)	46	1.2	approximately 17%	approximately 66%	99.8	1630	5	41100	44200	Cmax, mean (CV %) [1]: 40.9 (35) μg/mL; tmax, median (minimum, maximum) [1]: 1.0 (1.0, 1.0) h; AUC(0-t) ([1]; AUC0-t): 97.1 µg·h/mL; AUC(0-inf) ([1]; AUC∞, mean (CV %)): 1680 µg·h/mL; clearance ([1]; CL, mean (CV %)): 6.67 mL/min; half-life ([1]; Half-Life): 1.13 h; half-life ([1]; Half-Life, median (range)): 40.5 h; Vd [1]: 7.26 L; Vd ([1]; mean (CV %)): 19.2 L; Vd ([1]; median (range)): 17.9 L; clearance ([1]; median dialysis clearance (CLD)): 95.8 mL/min; half-life ([1]; t1/2 during the HD period (median)): 1.13 h; half-life [2]: 5.85 h
